# Measurements taken from US11000033B2, “Ketone or oxime compound, and herbicide” (NISSAN CHEMICAL CORPORATION, priority 2014, dated 2021).
# Tests used:
# Format in all cases: in vivo
# [1] = test system: directly sowed rice plant; experiment: Test Example 3: effect on crop by foliage application, Wagner pot (symbol b); settings: application herbicide amount 320 g/ha
# Outline: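 Wagner pot (1/10000 are), alluvial soil, submerged 0.1–0.5 cm; sown E. crus-galli var. crus-galli, L. chinensis, C. difformis, rice; greenhouse 25–30 °C.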
# Monochoria vaginalis = experiment: Test Example 1: herbicidal activity, application before weed generation in submerged conditions (symbol C); settings: application herbicide amount 320 g/ha
# Outline: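 Steps: alluvial soil flooded to 4 cm; weed seeds sown together; rice seedlings (2.5 leaf) transplanted; diluted emulsion applied to water surface the same day as sowing; plants grown at 25–30 °C in greenhouse; herbicidal effect rated on a 0–5 scale at 3 weeks.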
# Abutilon theophrasti = experiment: Test Example 4: herbicidal effect by soil treatment (symbol M); settings: application herbicide amount 320 g/ha
# Outline: (§1)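 Seeds were sown in sterilized diluvial soil, covered with about 1.5 cm of soil, and the soil surface was sprayed with a water-diluted emulsion of the compound at a predetermined rate. Plants grew in a greenhouse at 25° C. to 30° C.; effects were scored visually 3 weeks after application.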
# Lolium multiflorum Lam. = experiment: Test Example 5: herbicidal effect by foliage application, plastic box (symbol K); settings: 320 g/ha, 3 weeks after application
# Outline: (§2)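 Post-emergence spray; diluvial soil (sterilized), ~1.5 cm seed cover; greenhouse 25–30° C; 14-day-old plants; water-diluted emulsion at predetermined dose; visual score at 3 wk post-treatment.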
# beet = experiment: Test Example 4: effect on crop by soil treatment (symbol f); settings: application herbicide amount 320 g/ha
# Outline: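 Soil-treatment setup: crop and weed seeds were spot-sown into sterilized diluvial soil, then buried beneath approximately 1.5 cm of it, and the boxes were housed in a 25–30° C. greenhouse.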
# Scirpus juncoides = experiment: Test Example 2: herbicidal activity, application during weed generation in submerged conditions (symbol B); settings: Table 23; application herbicide amount 320 g/ha; grade 0-5 by criteria of Test Example 1
# Outline: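 Submerged alluvial soil (4 cm) sown with mixed seed; greenhouse 25–30° C. 1–2 leaf: diluted emulsion onto water surface, preset dose. Visual score, 3 wk.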
# soybean = experiment: Test Example 5: effect on crop by foliage application, plastic box (symbol d); settings: 320 g/ha, 3 weeks after application
# Outline: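 In a plastic box 7 cm deep filled with sterilized diluvial soil, seeds of crops and weeds such as Digitaria ciliaris, Avena fatua and Amaranthus retroflexus are sown in spots and covered with about 1.5 cm of soil before greenhouse growth at 25–30° C.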
# [2] = test system: Echinochloa crus-galli var. crus-galli; experiment: Test Example 5: herbicidal effect by foliage application, plastic box (symbol H); settings: 320 g/ha, 3 weeks after application
# Outline: as §2
# Stellaria media = experiment: Test Example 4: herbicidal effect by soil treatment (symbol P); settings: application herbicide amount 320 g/ha
# Outline: as §1
structure (smiles),measurement,setting,value
CON=C(C)CC1CC(O)=C(c2c(C)cc(-c3cc(Cl)cc(Cl)c3)cc2C)C1=O (stereo not drawn) [6-087],"effect on crop b (directly sowed rice plant), grade 0-5",[1],5 (Herbicidal ratio of 90% or more (almost completely withered))
same,"Herbicidal effect grade, C: Monochoria vaginalis",Monochoria vaginalis,0 (Herbicidal ratio of 5% or lower (almost no effect))
same,"Herbicidal effect grade, M: Abutilon theophrasti",Abutilon theophrasti,0 (Herbicidal ratio of 5% or lower (almost no effect))
same,"K: Lolium multiflorum Lam., herbicidal effect (criteria of Test Example 1)",Lolium multiflorum Lam.,4 (Herbicidal ratio of 70% or higher and lower than 90%)
same,"Effect on crop grade, f: beet",beet,0 (Herbicidal ratio of 5% or lower (almost no effect))
same,"Herbicidal effect grade, B: Scirpus juncoides",Scirpus juncoides,0 (Herbicidal ratio of 5% or lower (almost no effect))
same,"d: soybean, effect on crop (criteria of Test Example 1)",soybean,3 (Herbicidal ratio of 40% or higher and lower than 70%)
same,"H: Echinochloa crus-galli var. crus-galli, herbicidal effect (criteria of Test Example 1)",[2],5 (Herbicidal ratio of 90% or more (almost completely withered))
same,"Herbicidal effect grade, P: Stellaria media",Stellaria media,0 (Herbicidal ratio of 5% or lower (almost no effect))
CON=C(C)CC1CC(O)=C(c2c(C)cc(-c3ccc(OC(F)(F)F)cc3)cc2C)C1=O (mixture of isomers) [6-056],"effect on crop b (directly sowed rice plant), grade 0-5",[1],5 (Herbicidal ratio of 90% or more (almost completely withered))
same,"Herbicidal effect grade, C: Monochoria vaginalis",Monochoria vaginalis,0 (Herbicidal ratio of 5% or lower (almost no effect))
same,"M: Abutilon theophrasti, herbicidal effect grade",Abutilon theophrasti,0 (Herbicidal ratio of 5% or lower (almost no effect))
same,"K: Lolium multiflorum Lam., herbicidal effect (criteria of Test Example 1)",Lolium multiflorum Lam.,4 (Herbicidal ratio of 70% or higher and lower than 90%)
same,"f: beet, effect on crop grade",beet,0 (Herbicidal ratio of 5% or lower (almost no effect))
same,"Herbicidal effect grade, B: Scirpus juncoides",Scirpus juncoides,0 (Herbicidal ratio of 5% or lower (almost no effect))
same,"d: soybean, effect on crop (criteria of Test Example 1)",soybean,0 (Herbicidal ratio of 5% or lower (almost no effect))
same,"H: Echinochloa crus-galli var. crus-galli, herbicidal effect (criteria of Test Example 1)",[2],4 (Herbicidal ratio of 70% or higher and lower than 90%)
same,"P: Stellaria media, herbicidal effect grade",Stellaria media,0 (Herbicidal ratio of 5% or lower (almost no effect))
CON=C(C)CC1CC(OC(=O)N(C)C)=C(c2c(C)cc(-c3ccc(Cl)cc3)cc2C)C1=O (mixture of isomers) [6-063],"effect on crop b (directly sowed rice plant), grade 0-5",[1],5 (Herbicidal ratio of 90% or more (almost completely withered))
same,"Herbicidal effect grade, C: Monochoria vaginalis",Monochoria vaginalis,3 (Herbicidal ratio of 40% or higher and lower than 70%)
same,"M: Abutilon theophrasti, herbicidal effect grade",Abutilon theophrasti,0 (Herbicidal ratio of 5% or lower (almost no effect))
same,"K: Lolium multiflorum Lam., herbicidal effect (criteria of Test Example 1)",Lolium multiflorum Lam.,5 (Herbicidal ratio of 90% or more (almost completely withered))
same,"f: beet, effect on crop grade",beet,0 (Herbicidal ratio of 5% or lower (almost no effect))
same,"Herbicidal effect grade, B: Scirpus juncoides",Scirpus juncoides,3 (Herbicidal ratio of 40% or higher and lower than 70%)
same,"d: soybean, effect on crop (criteria of Test Example 1)",soybean,0 (Herbicidal ratio of 5% or lower (almost no effect))
same,"H: Echinochloa crus-galli var. crus-galli, herbicidal effect (criteria of Test Example 1)",[2],5 (Herbicidal ratio of 90% or more (almost completely withered))
same,"P: Stellaria media, herbicidal effect grade",Stellaria media,0 (Herbicidal ratio of 5% or lower (almost no effect))
CON=C(C)CC1CC(OC(=O)N2CCCCC2)=C(c2c(C)cc(C)cc2OC)C1=O (stereo not drawn) [6-111],"effect on crop b (directly sowed rice plant), grade 0-5",[1],5 (Herbicidal ratio of 90% or more (almost completely withered))
same,"Herbicidal effect grade, C: Monochoria vaginalis",Monochoria vaginalis,2 (Herbicidal ratio of 20% or higher and lower than 40%)
same,"Herbicidal effect grade, M: Abutilon theophrasti",Abutilon theophrasti,0 (Herbicidal ratio of 5% or lower (almost no effect))
same,"K: Lolium multiflorum Lam., herbicidal effect (criteria of Test Example 1)",Lolium multiflorum Lam.,5 (Herbicidal ratio of 90% or more (almost completely withered))
same,"Effect on crop grade, f: beet",beet,0 (Herbicidal ratio of 5% or lower (almost no effect))
same,"Herbicidal effect grade, B: Scirpus juncoides",Scirpus juncoides,3 (Herbicidal ratio of 40% or higher and lower than 70%)
same,"d: soybean, effect on crop (criteria of Test Example 1)",soybean,1 (Herbicidal ratio of 5% or higher and lower than 20%)
same,"H: Echinochloa crus-galli var. crus-galli, herbicidal effect (criteria of Test Example 1)",[2],5 (Herbicidal ratio of 90% or more (almost completely withered))
same,"Herbicidal effect grade, P: Stellaria media",Stellaria media,0 (Herbicidal ratio of 5% or lower (almost no effect))
CON=C(C)CC1CC(OC(=O)N2CCOCC2)=C(c2c(C)cc(C)cc2OC)C1=O (stereo not drawn) [6-094],"effect on crop b (directly sowed rice plant), grade 0-5",[1],5 (Herbicidal ratio of 90% or more (almost completely withered))
same,"Herbicidal effect grade, C: Monochoria vaginalis",Monochoria vaginalis,3 (Herbicidal ratio of 40% or higher and lower than 70%)
same,"Herbicidal effect grade, M: Abutilon theophrasti",Abutilon theophrasti,4 (Herbicidal ratio of 70% or higher and lower than 90%)
same,"K: Lolium multiflorum Lam., herbicidal effect (criteria of Test Example 1)",Lolium multiflorum Lam.,5 (Herbicidal ratio of 90% or more (almost completely withered))
same,"Effect on crop grade, f: beet",beet,0 (Herbicidal ratio of 5% or lower (almost no effect))
same,"Herbicidal effect grade, B: Scirpus juncoides",Scirpus juncoides,2 (Herbicidal ratio of 20% or higher and lower than 40%)
same,"d: soybean, effect on crop (criteria of Test Example 1)",soybean,4 (Herbicidal ratio of 70% or higher and lower than 90%)
same,"H: Echinochloa crus-galli var. crus-galli, herbicidal effect (criteria of Test Example 1)",[2],5 (Herbicidal ratio of 90% or more (almost completely withered))
same,"Herbicidal effect grade, P: Stellaria media",Stellaria media,0 (Herbicidal ratio of 5% or lower (almost no effect))
CON=C(C)CC1CC(OS(=O)(=O)N(C)C)=C(c2c(C)cc(C)cc2OC)C1=O (stereo not drawn) [6-095],"effect on crop b (directly sowed rice plant), grade 0-5",[1],5 (Herbicidal ratio of 90% or more (almost completely withered))
same,"Herbicidal effect grade, C: Monochoria vaginalis",Monochoria vaginalis,0 (Herbicidal ratio of 5% or lower (almost no effect))
same,"Herbicidal effect grade, M: Abutilon theophrasti",Abutilon theophrasti,5 (Herbicidal ratio of 90% or more (almost completely withered))
same,"K: Lolium multiflorum Lam., herbicidal effect (criteria of Test Example 1)",Lolium multiflorum Lam.,5 (Herbicidal ratio of 90% or more (almost completely withered))
same,"Effect on crop grade, f: beet",beet,0 (Herbicidal ratio of 5% or lower (almost no effect))
same,"Herbicidal effect grade, B: Scirpus juncoides",Scirpus juncoides,3 (Herbicidal ratio of 40% or higher and lower than 70%)
same,"d: soybean, effect on crop (criteria of Test Example 1)",soybean,3 (Herbicidal ratio of 40% or higher and lower than 70%)
same,"H: Echinochloa crus-galli var. crus-galli, herbicidal effect (criteria of Test Example 1)",[2],5 (Herbicidal ratio of 90% or more (almost completely withered))
same,"Herbicidal effect grade, P: Stellaria media",Stellaria media,0 (Herbicidal ratio of 5% or lower (almost no effect))
